Experimental data: patent US9199943B2, “2-(poly-substituted aryl)-6-amino-5-halo-4-pyrimidinecarboxylic acids and their use as herbicides” (Dow AgroSciences, LLC., priority 2006, dated 2015)

Columns and labels:
[1] = test system: CHEAL = lambsquarter (Chenopodium album); assay: General preemergence herbicidal activity, lambsquarter; format: in vivo; settings: Chenopodium album, pre-emergence, 480 h, pre-emergent, visual score after 20-22 days; for pest or weed control at 140 g/ha: 140 g ai/ha
Text: (§1) Seeds of the desired test plant species were planted in a soil matrix prepared by mixing a loam soil (43 percent silt, 19 percent clay, and 38 percent sand, with a pH of about 8.1 and an organic matter content of about 1.5 percent) and sand in a 70 to 30 ratio. The soil matrix was contained in plastic pots with a surface area of 113 square centimeters. When required to ensure good germination and healthy plants, a fungicide treatment and/or other chemical or physical treatment was applied. A weighed amount, determined by the highest rate to be tested, of each test compound was placed in a 25 mL glass vial and was dissolved in 6 mL of a 97:3 v/v (volume/volume) mixture of acetone and DMSO to obtain concentrated stock solutions. […] The stock solutions obtained were diluted with 18 mL of a 0.1% v/v aqueous solution of Tween® 20 surfactant to obtain spray solutions containing the highest application rate. Additional application rates were obtained by serial dilution of 12 mL of the high rate solution into a solution containing 3 mL of 97:3 v/v mixture of acetone and DMSO and 9 mL of the 0.1% v/v aqueous solution of Tween® 20 surfactant to obtain 1⁄2×, 1⁄4×, 1⁄8× and 1/16× rates of the high rate. Compound requirements are based upon a 12 mL application volume at a rate of 187 L/ha. Formulated compounds were applied to the plant material with an overhead Mandel track sprayer equipped with a […] nozzles calibrated to deliver 187 L/ha over an application area of 0.503 square meters at a spray height of 18 inches (43 cm) above the soil surface. Control plants were sprayed in the same manner with the solvent blank. The treated pots and control pots were placed in a greenhouse maintained with an approximate 15 hour photoperiod and temperatures of about 23-29° C. during the day and 22-28° C. during the night. Nutrients and water were added on a regular basis and supplemental lighting was provided with overhead metal halide 1000-Watt lamps as necessary. The water was added by top-irrigation. After 20-22 days, the condition of the test plants that germinated and grew as compared with that of the untreated plants that emerged and grew was determined visually and scored on a scale of 0 to 100 percent where 0 corresponds to no injury and 100 corresponds to complete kill or no emergence.

[2] = test system: ABUTH = velvetleaf (Abutilon theophrasti); assay: General preemergence herbicidal activity, velvetleaf; format: in vivo; settings: Abutilon theophrasti, pre-emergence, 480 h, pre-emergent, visual score after 20-22 days; for pest or weed control at 140 g/ha: 140 g ai/ha
Text: as §1

[3] = test system: HELAN = sunflower (Helianthus annuus); assay: General preemergence herbicidal activity, sunflower; format: in vivo; settings: Helianthus annuus, pre-emergence, 480 h, pre-emergent, visual score after 20-22 days; for pest or weed control at 140 g/ha: 140 g ai/ha
Text: as §1

Structure (SMILES) | melting point | pest or weed control at 140 g/ha [1] | pest or weed control at 140 g/ha [2] | pest or weed control at 140 g/ha [3] | pest or weed control at 280 g/ha ([1]; 280 g ai/ha) | pest or weed control at 280 g/ha ([2]; 280 g ai/ha) | pest or weed control at 280 g/ha ([3]; 280 g ai/ha)
COC(=O)c1nc(-c2c(F)cc(Cl)c(OC)c2F)nc(N)c1Cl [Compound 2, 6-amino-5-chloro-2-(4-chloro-2,6-difluoro-3-methoxy-phenyl)pyrimidine-4-carboxylic acid methyl ester] |  | 90% | 100% | 20% |  |  | 
COC(=O)c1nc(-c2ccc(Cl)c(OC)c2Cl)nc(N)c1Cl [Compound 6, 6-Amino-5-chloro-2-(2,4-dichloro-3-methoxyphenyl)pyrimidine-4-carboxylic acid methyl ester] |  | 100% | 60% | 90% |  |  | 

Further lines, with some results ahead:

melting point | Structure (SMILES) | pest or weed control at 140 g/ha [1] | pest or weed control at 140 g/ha [2] | pest or weed control at 140 g/ha [3] | pest or weed control at 280 g/ha ([1]; 280 g ai/ha) | pest or weed control at 280 g/ha ([2]; 280 g ai/ha) | pest or weed control at 280 g/ha ([3]; 280 g ai/ha)
155 to 157 °C | COC(=O)c1nc(-c2ccc(Cl)c(C(F)F)c2F)nc(N)c1Cl [Compound 7, 6-Amino-5-chloro-2-(4-chloro-3-difluoromethyl-2-fluorophenyl)pyrimidine-4-carboxylic acid methyl ester] | 70% | 75% | 90% |  |  | 
143 to 144 °C | COC(=O)c1nc(-c2ccc(Cl)c(N(C)C)c2F)nc(N)c1Cl [Compound 8, 6-Amino-5-chloro-2-(4-chloro-3-dimethylamino-2-fluorophenyl)pyrimidine-4-carboxylic acid methyl ester] |  |  |  |  |  | 
139 to 141 °C | COC(=O)c1nc(-c2ccc(Cl)c(OCC(F)F)c2F)nc(N)c1Cl [Compound 10, 6-Amino-5-chloro-2-[4-chloro-3-(2,2-difluoroethoxy)-2-fluorophenyl]-pyrimidine-4-carboxylic acid methyl ester] |  |  |  | 60% | 80% | 0%
